# Test results: US20180110824A1, “Macrocyclic Modulators of the Ghrelin Receptor” (Ocera Therapeutics, Inc., priority 2016, published 2018)
# Like-named read-outs stand apart in the source and are kept apart here.
# Tests used:
# [1] = test system: morphine-delayed gastric emptying and gastrointestinal transit in rats; assay: Opioid (morphine)-delayed gastric emptying and gastrointestinal transit in rats; assay type: in vivo, rat; settings: i.v., after morphine 3 mg/kg s.c., FIG. 16B
# Text: Opioid analgesics, such as morphine, are well known to delay gastrointestinal transit which is an important side-effect for this class of drugs. The clinical term for this syndrome is opioid bowel dysfunction (OBD). Importantly, patients recovering from abdominal surgery experience post-operative ileus that is further exacerbated by concomitant opioid therapy for post-surgical pain.
# • 1. Rats (male, Sprague-Dawley, 250-300 g) are implanted with jugular vein catheters to accommodate dosing of test articles. • 2. Overnight-fasted rats are administered morphine (3 mg/kg s.c.). • 3. […] Radioactivity (^99mTc) in each tissue isolate is measured as a means of measuring the transit of the meal.
# [2] = biological target: T1, human growth hormone secretagogue receptor (hGHS-R1a) (Homo sapiens, UniProt Q92847); assay: Competitive radioligand binding assay (ghrelin receptor), [125I]-ghrelin displacement on GHS-R/HEK 293 membranes; settings: for Ki: read-out: Ki
# T1 construct: purchased PerkinElmer BioSignal #RBHGHSM; host or cells: HEK-293, stably transfected
# [3] = test system: rat model of post-operative ileus (POI); assay: Gastric emptying and intestinal transit in rat model of postoperative ileus; assay type: in vivo
# Text: This clinically relevant model for POI is adapted from that of […].; Simmons, R. L.; Bauer, A. J. Surgical manipulation of the gut elicits an intestinal muscularis inflammatory response resulting in postsurgical ileus. Ann. Surg. 1998, 228, 652-663.) Other known models can also be used to study the effect of compounds of the invention. […] Rat, Sprague-Dawley, male, 300 g. • 2. Fasted O/N prior to study. • 1. Isofluorane anaesthesia under sterile conditions. • 2. Midline abdominal incision. • 3. Intestines and caecum were eviscerated and kept moist with saline. • 4. the intestines and caecum were manipulated along its entire length with moist cotton applicators analogous to the 'running of the bowel' in the clinical setting. This procedure was timed to last for 10 min. • 5. Intestines were gently replaced into the abdomen and the abdominal wound was stitched closed under sterile conditions. • 1. Rat was allowed to recover from isofluorane anaesthesia. • 2. Test compounds (or vehicle) were administered intravenously via previously implanted jugular catheter. • 3. Immediate intragastric gavage of methylcellulose (2%) labeled with radioactive ^99mTc, T=0. • 1. At t=15 min, animal was euthanized with CO2. • 2. Stomach and 10 cm sections along the small intestine were immediately ligated, cut and placed in tubes for measuring of ^99mTc in gamma counter. • 3. Stomach emptying and small intestinal transit were measured by calculation of the geometric mean. Geometric mean=Σ(% total radioactivity×number of segment)/100 • 1. Model adapted from Kälff et al. (1998), Ann Surg 228:652-63. • 2. Rats (male, Sprague-Dawley, 250-300 g) were implanted with jugular vein catheters to accommodate dosing of test articles. • 3. Rats were fasted O/N, anesthetized with isofluorane and subjected to abdominal surgery. • 4. Following an abdominal incision, the smalt intestine caecum and large intestine were eviscerated for a period of 15 min and kept moist with saline. • 5. […] Radioactivity (^99mTc) in each tissue isolate was measured as a means of measuring the transit of the meal.
# [4] = biological target: T2, hGHS-R1a (Homo sapiens, UniProt Q92847); assay: hGHS-R1a receptor agonism and desensitization by FLIPR in HEK293 cells; assay type: cell-based
# T2 construct: expressed in transfected cells; host or cells: HEK293
# Experimental: • 1. Studies by FLIPR (Fluorometric Imaging Plate Reader, Molecular Devices). • 2. Assay performed on HEK293 cells expressing hGHS-R1a. • 3. […] A DC50 value is calculated.
# T1 sequence (Q92847 whole entry): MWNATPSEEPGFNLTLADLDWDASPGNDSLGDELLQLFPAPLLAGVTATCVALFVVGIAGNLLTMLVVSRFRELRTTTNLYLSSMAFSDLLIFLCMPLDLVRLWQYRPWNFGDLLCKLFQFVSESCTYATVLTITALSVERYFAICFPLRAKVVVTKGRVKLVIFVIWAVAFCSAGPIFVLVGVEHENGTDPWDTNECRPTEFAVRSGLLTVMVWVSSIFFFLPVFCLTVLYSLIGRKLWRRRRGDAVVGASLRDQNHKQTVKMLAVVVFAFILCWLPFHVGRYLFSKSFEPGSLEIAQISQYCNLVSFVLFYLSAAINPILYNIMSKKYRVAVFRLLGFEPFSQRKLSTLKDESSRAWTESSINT
# T2 sequence (Q92847 whole entry): as above
compound,measurement,setting,value
CC1C(=O)NC(Cc2ccc(F)cc2)C(=O)NCCCc2ccccc2O[C@H](C)CNC(C2CC2)C(=O)N1C (stereo partly drawn) [compound 298],opioid-delayed gastrointestinal transit,[1],effectively reversed in a dose-dependent manner
same,Ki,"[2]; Table 3B, binding activity at the human ghrelin receptor",10 to 100 nM
same,Ki,"[2]; Table 4, TFA salts unless otherwise noted",10 to 100 nM
same,binding to hGHS-R1a,"[2]; representative binding inhibition curve, FIG. 10","binds competitively, reversibly, and with high affinity"
same,promotion of GI transit (geometric center of the meal) vs POI+vehicle,[3]; 100 μg/kg (i.v.),2.7 ×
same,effect on postoperative ileus vs POI+vehicle treated rats,"[3]; 100 μg/kg i.v., n=5, FIG. 8",significantly improves postoperative ileus
same,gastric emptying and intestinal transit in POI rats,[3]; 100 and 300 μg/kg (i.v.),significantly increased gastric emptying and intestinal transit
same,"desensitization potency lower than other ghrelin agonists (ghrelin peptide, capromorelin)",[4]; FIG. 13C,~10 fold
same,DC50 value less potent than the EC50 value,"[4]; FLIPR, HEK293",> 6 fold
same,agonist type,"[4]; FLIPR, HEK293",full agonist
same,EC50,"[4]; FLIPR, HEK293 cells expressing hGHS-R1a, FIG. 13A",5 nM
same,DC50,"[4]; read-out: DC50 (pre-treatment concentration that desensitizes the ghrelin EC100 response by 50%), 3 minutes pre-treatment, FLIPR, HEK293, FIG. 13B",32 nM
